From the supplement of paper PMC8612539

Tests used:
Enterococcus spp. = assay: minimum inhibitory concentration (MIC)
Description: (§1)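 Broth microdilution MIC (Sensititre BOPO7F bovine plate, CLSI methods) of 19 antimicrobials against field isolates of P. multocida, M. haemolytica, H. somni (deep nasopharyngeal swabs) and E. coli, Enterococcus spp. (rectal swabs) from weaned dairy heifers. Incubation 16-24 h at 35 C. MIC is the lowest concentration preventing visible growth. Values with <= or > lie at the tested range limits. Trimethoprim-sulfamethoxazole is given as the trimethoprim component of a 1:19 mixture.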

Mannheimia haemolytica = assay: minimum inhibitory concentration (MIC)
Description: as §1

COc1cc(NS(=O)(=O)c2ccc(N)cc2)nc(OC)n1 [sulfadimethoxine]
Settings | minimum inhibitory concentration [µg/mL]
Enterococcus spp., isolate (source animal id): 2 | > 256
Enterococcus spp., isolate (source animal id): 35 | > 256
Enterococcus spp., isolate (source animal id): 42 | > 256
Enterococcus spp., isolate (source animal id): 44 | > 256
Enterococcus spp., isolate (source animal id): 79 | > 256
Enterococcus spp., isolate (source animal id): 88 | > 256
Enterococcus spp., isolate (source animal id): 91 | > 256
Enterococcus spp., isolate (source animal id): 92 | > 256
Enterococcus spp., isolate (source animal id): 111 | > 256
Enterococcus spp., isolate (source animal id): 122 | > 256
Enterococcus spp., isolate (source animal id): 123 | > 256
Enterococcus spp., isolate (source animal id): 133 | > 256
Enterococcus spp., isolate (source animal id): 158 | > 256
Enterococcus spp., isolate (source animal id): 168 | > 256
Enterococcus spp., isolate (source animal id): 169 | > 256
Enterococcus spp., isolate (source animal id): 171 | > 256
Enterococcus spp., isolate (source animal id): 175 | > 256
Enterococcus spp., isolate (source animal id): 177 | > 256
Enterococcus spp., isolate (source animal id): 181 | > 256
Enterococcus spp., isolate (source animal id): 182 | > 256
Enterococcus spp., isolate (source animal id): 183 | > 256
Enterococcus spp., isolate (source animal id): 187 | > 256
Enterococcus spp., isolate (source animal id): 190 | > 256
Enterococcus spp., isolate (source animal id): 194 | > 256
Enterococcus spp., isolate (source animal id): 195 | > 256
Enterococcus spp., isolate (source animal id): 197 | > 256
Enterococcus spp., isolate (source animal id): 211 | > 256
Enterococcus spp., isolate (source animal id): 214 | > 256
Enterococcus spp., isolate (source animal id): 222 | > 256
Enterococcus spp., isolate (source animal id): 223 | > 256
Enterococcus spp., isolate (source animal id): 228 | > 256
Enterococcus spp., isolate (source animal id): 230 | > 256
Enterococcus spp., isolate (source animal id): 235 | > 256
Enterococcus spp., isolate (source animal id): 236 | > 256
Enterococcus spp., isolate (source animal id): 239 | > 256
Enterococcus spp., isolate (source animal id): 241 | > 256
Enterococcus spp., isolate (source animal id): 244 | > 256
Enterococcus spp., isolate (source animal id): 246 | > 256
Enterococcus spp., isolate (source animal id): 247 | > 256
Enterococcus spp., isolate (source animal id): 250 | > 256
Enterococcus spp., isolate (source animal id): 252 | > 256
Enterococcus spp., isolate (source animal id): 268 | > 256
Enterococcus spp., isolate (source animal id): 282 | > 256
Enterococcus spp., isolate (source animal id): 285 | > 256
Enterococcus spp., isolate (source animal id): 289 | > 256
Enterococcus spp., isolate (source animal id): 290 | > 256
Enterococcus spp., isolate (source animal id): 296 | > 256
Enterococcus spp., isolate (source animal id): 298 | > 256
Enterococcus spp., isolate (source animal id): 301 | > 256
Enterococcus spp., isolate (source animal id): 310 | > 256
Enterococcus spp., isolate (source animal id): 320 | > 256
Enterococcus spp., isolate (source animal id): 331 | > 256
Enterococcus spp., isolate (source animal id): 333 | > 256
Enterococcus spp., isolate (source animal id): 341 | > 256
Mannheimia haemolytica, isolate (source animal id): 8 | > 256
Mannheimia haemolytica, isolate (source animal id): 13 | > 256
Mannheimia haemolytica, isolate (source animal id): 18 | > 256
Mannheimia haemolytica, isolate (source animal id): 21 | > 256
Mannheimia haemolytica, isolate (source animal id): 25 | > 256
Mannheimia haemolytica, isolate (source animal id): 27 | > 256
Mannheimia haemolytica, isolate (source animal id): 28 | ≤ 256
Mannheimia haemolytica, isolate (source animal id): 30 | > 256
Mannheimia haemolytica, isolate (source animal id): 31 | ≤ 256
Mannheimia haemolytica, isolate (source animal id): 32 | > 256
Mannheimia haemolytica, isolate (source animal id): 34 | > 256
Mannheimia haemolytica, isolate (source animal id): 36 | > 256
Mannheimia haemolytica, isolate (source animal id): 37 | > 256
Mannheimia haemolytica, isolate (source animal id): 40 | > 256
Mannheimia haemolytica, isolate (source animal id): 41 | > 256
Mannheimia haemolytica, isolate (source animal id): 43 | > 256
Mannheimia haemolytica, isolate (source animal id): 46 | > 256
Mannheimia haemolytica, isolate (source animal id): 49 | > 256
Mannheimia haemolytica, isolate (source animal id): 50 | > 256
Mannheimia haemolytica, isolate (source animal id): 51 | > 256
Mannheimia haemolytica, isolate (source animal id): 52 | > 256
Mannheimia haemolytica, isolate (source animal id): 53 | > 256
Mannheimia haemolytica, isolate (source animal id): 55 | > 256
